Results published in PubChem BioAssay (NCI).
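Results reflect a 48-hour exposure of cells in 96-well plates to compound at five concentrations. Abbreviation: GI50, concentration required for 50% inhibition of growth. At the TGI there is no net growth.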

Legend:
Assay in all cases: DTP human tumour cell line panel, 48 h
786-0 renal = test system: 786-0 renal
A498 renal = test system: A498 renal
A549 NSCLC = test system: A549 NSCLC
ACHN renal = test system: ACHN renal
BT-549 breast = test system: BT-549 breast
CAKI-1 renal = test system: CAKI-1 renal
CCRF-CEM leukemia = test system: CCRF-CEM leukemia
COLO 205 colon = test system: COLO 205 colon
DU-145 prostate = test system: DU-145 prostate
EKVX NSCLC = test system: EKVX NSCLC
HCT-116 colon = test system: HCT-116 colon
HCT-15 colon = test system: HCT-15 colon
HL-60(TB) leukemia = test system: HL-60(TB) leukemia
HOP-62 NSCLC = test system: HOP-62 NSCLC
HOP-92 NSCLC = test system: HOP-92 NSCLC
HS 578T breast = test system: HS 578T breast
HT29 colon = test system: HT29 colon
IGROV1 ovarian = test system: IGROV1 ovarian
K-562 leukemia = test system: K-562 leukemia
KM12 colon = test system: KM12 colon
LOX IMVI melanoma = test system: LOX IMVI melanoma
M14 melanoma = test system: M14 melanoma
MALME-3M melanoma = test system: MALME-3M melanoma
MCF7 breast = test system: MCF7 breast
MDA-MB-231 breast = test system: MDA-MB-231 breast
MDA-MB-435 = test system: MDA-MB-435
MOLT-4 leukemia = test system: MOLT-4 leukemia
NCI-H226 lung = test system: NCI-H226 lung
NCI-H23 lung = test system: NCI-H23 lung

Compound: COc1ccc2c(c1)C(=O)/C(=C/c1cccc(OCC(=O)c3ccc([N+](=O)[O-])cc3)c1)CO2
- GI50 (786-0 renal): 2 µM
- TGI (786-0 renal): 4.83 µM
- GI50 (A498 renal): 14.3 µM
- TGI (A498 renal): 27.3 µM
- GI50 (A549 NSCLC): 6.72 µM
- TGI (A549 NSCLC): 22.8 µM
- GI50 (ACHN renal): 2.32 µM
- TGI (ACHN renal): 6.41 µM
- GI50 (BT-549 breast): 1.91 µM
- TGI (BT-549 breast): 4.85 µM
- GI50 (CAKI-1 renal): 3.85 µM
- TGI (CAKI-1 renal): 10.4 µM
- GI50 (CCRF-CEM leukemia): 2.32 µM
- GI50 (COLO 205 colon): 2.74 µM
- TGI (COLO 205 colon): 6.33 µM
- GI50 (DU-145 prostate): 2.73 µM
- TGI (DU-145 prostate): 7.14 µM
- GI50 (EKVX NSCLC): 7.68 µM
- TGI (EKVX NSCLC): 21.9 µM
- GI50 (HCT-116 colon): 1.33 µM
- TGI (HCT-116 colon): 2.67 µM
- GI50 (HCT-15 colon): 2.17 µM
- TGI (HCT-15 colon): 6.92 µM
- GI50 (HL-60(TB) leukemia): 2.34 µM
- TGI (HL-60(TB) leukemia): 12.8 µM
- GI50 (HOP-62 NSCLC): 2.13 µM
- TGI (HOP-62 NSCLC): 5.35 µM
- GI50 (HOP-92 NSCLC): 3.16 µM
- TGI (HOP-92 NSCLC): 15.8 µM
- GI50 (HS 578T breast): 2.73 µM
- TGI (HS 578T breast): 12.2 µM
- GI50 (HT29 colon): 1.93 µM
- TGI (HT29 colon): 4.6 µM
- GI50 (IGROV1 ovarian): 1.48 µM
- TGI (IGROV1 ovarian): 3.86 µM
- GI50 (K-562 leukemia): 1.96 µM
- TGI (K-562 leukemia): > 22.4 µM
- GI50 (KM12 colon): 1.56 µM
- TGI (KM12 colon): 3.26 µM
- GI50 (LOX IMVI melanoma): 1.47 µM
- TGI (LOX IMVI melanoma): 2.88 µM
- GI50 (M14 melanoma): 2.19 µM
- TGI (M14 melanoma): 4.32 µM
- GI50 (MALME-3M melanoma): 2.91 µM
- TGI (MALME-3M melanoma): 10.9 µM
- GI50 (MCF7 breast): 0.72 µM
- TGI (MCF7 breast): 3.68 µM
- GI50 (MDA-MB-231 breast): 3.67 µM
- TGI (MDA-MB-231 breast): 14.2 µM
- GI50 (MDA-MB-435): 2.32 µM
- TGI (MDA-MB-435): 7.11 µM
- GI50 (MOLT-4 leukemia): 3.03 µM
- TGI (MOLT-4 leukemia): 17.9 µM
- GI50 (NCI-H226 lung): 7.06 µM
- TGI (NCI-H226 lung): 23.3 µM
- GI50 (NCI-H23 lung): 2.52 µM
